Laboratory results from patent US12377069B2, “Compounds, compositions, methods of using, and methods for preparing compounds” (UNIVERSITY OF LOUISVILLE RESEARCH FOUNDATION, INC., priority 2018, dated 2025).

Tested on: C57BL/6 mice
Experiment: LPS-induced peritonitis mouse model
Assay type: in vivo
Conditions: 20 mg/kg; LPS 2 mg/kg i.p.; 4 h post LPS
Protocol: FIG. 1: UAS03 is a potent anti-inflammatory structural analogue of UroA and induces tight junction proteins. (A) Chemical structures of UroA, UAS03. UroA/UAS03 stability was examined in the presence of gastric pH 2.0 and digestive enzymes. UroA and UAS03 (0.2 mg/ml) were incubated with digestive enzymes (esterases and proteases, 100 U/ml) for 12 h at 37° C. and compound levels were quantified. (B) BMDMs were stimulated with LPS (50 ng/ml) without or with UroA (blue line)/UAS03 (purple line) (0.1, 1, 10, 25 and 50 μM) for 6 hours. IL-6 and TNF-α levels in supernatants were measured. (C) C57BL/6 mice (n=3-4) were pretreated with UroA (20 mg/kg) and UAS03 (20 mg/kg). After 4 hours, LPS (2 mg/kg) was injected intraperitoneally. Post 4 h of LPS administration, serum levels of IL-6 and TNF-α was measured. […] (G) The fold changes in mRNA levels of claudin 4 (Cldn4), occludin (Ocln) and Zona occludens 1 (ZO1) in HT29 cells were determined by RT PCR method. (H) UroA/UAS03 induced protein expression of Cldn4, Ocln and ZO1 in HT29 cells were determined by immunoblots and quantified by Image J software. […] The green intensity (n=15-20 cell membrane regions) was measured. […] The protein lysates were prepared from colon scrapes and subjected to immunoblots and detected the expression of the (J) Nrf2, HO1, Cldn4 and (K) AhR using appropriate antibodies as described in methods. […]

SMILES | LPS-induced increase in serum IL-6 and TNF-α levels
Oc1ccc2c(c1)COc1cc(O)ccc1-2 [UAS03, 6H-benzo[c]chromene-3,8-diol] | reduced
O=c1oc2cc(O)ccc2c2ccc(O)cc12 [UroA, 3,8-dihydroxy-6H-dibenzo[b,d]pyran-6-one] | reduced
